Assay [1] deals with TCR3. Kind of assay: I-Ag7 SABR-II HIP library screen, enrichment score. The format is cell-based, mouse. The text has this: (§1) Given the predominance of HIP-reactive TCRs, we hypothesized that there may be other TCRs that respond to HIPs that were not encoded in our initial library configuration. While the initial I-Ag7 SABR-II library consisted of a number of HIPs, HIP formation is thought to be more widespread in pancreatic β-cells[52],[70]. Therefore, we sought to construct a defined, HIP-focused library to probe whether there were any undiscovered HIP-reactive TCRs that could be recognized by the clonally expanded TCR in our dataset. To test this, we utilized a published proteomic dataset, which predicted that several proteins that were highly expressed in secretory granules of β-cells may contribute to HIP formation. Using their predictions, we built a theoretical HIP library, in which all possible ‘left’ halves of the insulin C chain derived from natural cleavage products were fused to ‘right’ halves derived from secretory granule proteins (Fig. 5a). This 2,561-epitope library (12–25 amino acids per epitope) consisted of only HIPs and a small number of positive control epitopes (Supplementary Table 5). We screened the top three clonally expanded TCRs (TCR1, TCR2 and TCR3) against this library, as these TCRs had not been de-convoluted using the original library. […] To confirm that the HIP itself was important for the cognate interaction, we cloned single 14-mer epitopes into SABR-IIs consisting of seven amino acids of the left portion of the HIP and seven amino acids of the right portion of the HIP. In this way, no nine amino acids from either peptide sequence alone could occupy the binding pocket of I-Ag7, ensuring that TCR reactivity spanned the HIP junction. […] Of note, in all the epitopes that were tested, the ‘left’ half derived from insulin C was conserved, whereas the ‘right’ halves were derived from several other proteins (Fig. 5d). […] Moreover, the promiscuous binding of TCR3 to HIPs corroborates evidence from other NOD mouse-derived TCRs reacting to multiple HIPs[72].
To generate the I-Ag7 restricted SABR library, we combined all Immune Epitope Database epitopes with a published immunopeptidome generated by Wan et al.[51]. Sequences were filtered remove all post-translational modifications except deamidation and HIPs and trimmed between 9–25 amino acid lengths. For the insulin C HIP and HLA-DQ8 library, non-contiguous epitopes from Wiles et al.[66] as well as all Immune Epitope Database epitopes were combined to generate the epitope list. Epitope sequences were back-translated using the backtranslate_fast.py script.
For SABR library screens, 3 × 10^6 NFAT–GFP Jurkat cells expressing the SABR library were labeled with CellTrace Violet (BioLegend) according to the manufacturer’s protocol before incubation with 3 × 10^6 Jurkat cells expressing the TCR of interest. These mixtures were incubated in a six-well plate for 16–20 h. Cells were stained with anti-CD69-APC-Cy7 where indicated (BioLegend) and the top 1–2% of GFP^+CD69^+ cells were sorted for genomic DNA extraction, indexing and sequencing (see below). Multiplexed assays were scaled on a per-TCR basis (for example 3 × 10^6 for each of three TCRs against 9 × 10^6 library cells). For single SABR assays, unless otherwise defined, 5 × 10^5 SABR expressing NFAT–GFP Jurkat cells (or 5KC cells) were labeled with CellTrace Violet (BioLegend) according to the manufacturer’s protocol before incubation with 5 × 10^5 TCR-expressing Jurkat cells (or 5KC cells) in a round-bottom 96-well plate for 16–20 h. Cells were stained with anti-CD69-APC-Cy7 when indicated and acquired on the Attune NxT flow cytometer (Thermo Fisher Scientific). All flow analysis was performed using FlowJo (BD). For Daudi cell co-culture, 1 × 10^6 Jurkat cells expressing the TCR of interest were incubated with 1 × 10^6 Daudi cells expressing a SABR of interest for 3 days. On day 3, cells were labeled with anti-RT1B-PE and anti-Fas-APC-Cy7 before being acquired on the Attune NxT flow cytometer. […]

Assay [2] deals with TCR4. Kind of assay: Single SABR-II co-incubation, NFAT-GFP Jurkat. The following applies: TCR 4, Fig 5C. Format: cell-based, mouse. From the text: (§2) We performed systematic screening of the cloned TCRs against the I-Ag7 SABR-II library. Several TCRs along with a positive control (such as BDC2.5 or 4-8Ins) were screened individually against the library for each sort (Extended Data Fig. 6a and Supplementary Table 4). High- and low-confidence ES zones for each screened TCR were defined by the ES values of the control TCR’s cognate epitopes. For all putative cognate epitopes, single SABR-IIs were constructed, expressed in NFAT–GFP Jurkat cells and used for co-incubation with the corresponding TCRs. Co-incubation assays that yielded a GFP signal higher than that obtained in assays with no TCR were determined to be positive and the epitopes deemed true cognate ligands (Extended Data Fig. 6b,c). Using this strategy, we obtained epitopes in the high-confidence zone for eight TCRs (Fig. 3a and Extended Data Fig. 6b,d). Among numerous altered peptide ligands (APLs), these TCRs recognized the physiological InsC-ChgA HIP ([…] and analogs, recognized by TCR5, TCR6B, TCR9 and TCR34), InsC-Iapp HIP ([…] and analogs, recognized by TCR4 and TCR15) and InsB9:23 ([…] and analogs recognized by TCR24 and TCR37). These cognate high-confidence hits were validated using single SABR-II co-incubation assays (Fig. 3b and Extended Data Fig. 7a). Further validations using in vitro mouse interleukin-2 (mIL-2) secretion by TCR-expressing 5KC reporter cells[13] or CD25 expression by TCR-expressing splenic CD4^+ T cells upon stimulation with the cognate epitope were performed (Extended Data Fig. 7b,c). Furthermore, low-confidence hits were called for ten TCRs and tested in co-incubation assays.
(§3) For SABR library screens, 3 × 10^6 NFAT–GFP Jurkat cells expressing the SABR library were labeled with CellTrace Violet (BioLegend) according to the manufacturer’s protocol before incubation with 3 × 10^6 Jurkat cells expressing the TCR of interest. These mixtures were incubated in a six-well plate for 16–20 h. Cells were stained with anti-CD69-APC-Cy7 where indicated (BioLegend) and the top 1–2% of GFP^+CD69^+ cells were sorted for genomic DNA extraction, indexing and sequencing (see below). Multiplexed assays were scaled on a per-TCR basis (for example 3 × 10^6 for each of three TCRs against 9 × 10^6 library cells). For single SABR assays, unless otherwise defined, 5 × 10^5 SABR expressing NFAT–GFP Jurkat cells (or 5KC cells) were labeled with CellTrace Violet (BioLegend) according to the manufacturer’s protocol before incubation with 5 × 10^5 TCR-expressing Jurkat cells (or 5KC cells) in a round-bottom 96-well plate for 16–20 h. Cells were stained with anti-CD69-APC-Cy7 when indicated and acquired on the Attune NxT flow cytometer (Thermo Fisher Scientific). All flow analysis was performed using FlowJo (BD). For Daudi cell co-culture, 1 × 10^6 Jurkat cells expressing the TCR of interest were incubated with 1 × 10^6 Daudi cells expressing a SABR of interest for 3 days. On day 3, cells were labeled with anti-RT1B-PE and anti-Fas-APC-Cy7 before being acquired on the Attune NxT flow cytometer.

The test system of assay [3] is Jurkat cells, No TCR. Description: Single SABR-II co-incubation, background without TCR. Format: cell-based, human. The following applies: No TCR, Fig 5C.
Source text: as §2, §3

Assay [4] concerns TCR3. Kind of assay: Single SABR-II co-incubation, NFAT-GFP Jurkat. Format: cell-based, mouse. The following applies: TCR 3, Fig 5C.
Source text: as §1, §3

The mark [5] stands for this setting: HIP library, TCR 3, TCR_Mean of 3 replicates minus PREDICTED_TCR (slope 0.926662, intercept 2.88051e-5).
[6] abbreviates: I-Ag7 HIP library, one biological experiment.

DPQVEQLELGGSKDSDKGQQDGFE: the “Enrichment score” value in assay [1] (setting [5]) is 0.001805.

For the sequence EDPQVEQLELGGAEDQELESLSAI, in assay [1] (setting [5]), the “Enrichment score” value is reported as 0.001322.

Consider EDPQVEQLELGGKADEFPDFYDSE, for which the “Enrichment score” value in assay [1] (setting [5]) is reported as 0.001943.

“EQLELGGHIEDSGE [14-mer hybrid insulin peptide spanning the fusion junction, TCR3 hit]”: the “%GFP+CD69+ cells of SABR-NFAT-GFP-Jurkat cells” value (from here on “%GFP+CD69+ cells”) in assay [2] (technical replicate 1) came out at 13.2%; in assay [2] (technical replicate 2), 14.3%; in assay [3] (technical replicate 1), 14.1%; in assay [3] (technical replicate 2) it was 13.9%; in assay [4] (technical replicate 1), 29.1%; in assay [4] (technical replicate 2), 28.9%.

Turning to “EQLELGGKADEFPD [14-mer hybrid insulin peptide spanning the fusion junction, TCR3 hit]”, the “%GFP+CD69+ cells” value in assay [2] (technical replicate 1) is reported as 11.4%; in assay [2] (technical replicate 2), 11.5%; in assay [3] (technical replicate 1) it was 11.2%; in assay [3] (technical replicate 2), 12.4%; in assay [4] (technical replicate 1), 38.6%; in assay [4] (technical replicate 2), 37.2%.

In the case of “EVEDEVEDPQVAQLELGGGPGAGD [theoretical HIP of the I-Ag7 HIP library]”, the “Enrichment score” value in assay [1] (setting [6]) is 2.439e-5.

Turning to “EVEDEVEDPQVEQLELGGSPGDLQ [theoretical HIP of the I-Ag7 HIP library]”, the “Enrichment score” value in assay [1] (setting [6]) came out at 0.0001951.

As for “EVEDFVKQHLCGPHLVEALYLVCG [theoretical HIP of the I-Ag7 HIP library]”, the “Enrichment score” value in assay [1] (setting [6]) was -1.381e-6.

With “EVEDFVKQHLCGSHLVEALYLVCG [theoretical HIP of the I-Ag7 HIP library]”, the “Enrichment score” value in assay [1] (setting [6]) is -0.0001794.

With “EVEDGIVDQCCTSICSLYQLENYC [theoretical HIP of the I-Ag7 HIP library]”, in assay [1] (setting [6]), the “Enrichment score” value turned out to be 1.206e-5.

As for EVEDPQVEQLELNAARDPNRESLD, the “Enrichment score” value in assay [1] (setting [5]) is on record as 0.002309.

With “QLELGGSKDSDKGQ [14-mer hybrid insulin peptide spanning the fusion junction, TCR3 hit]”, the “%GFP+CD69+ cells” value in assay [2] (technical replicate 1) turned out to be 9.32%; in assay [2] (technical replicate 2) it was 9.4%; in assay [3] (technical replicate 1) it was 9.03%; in assay [3] (technical replicate 2), 10.7%; in assay [4] (technical replicate 1), 10.5%; in assay [4] (technical replicate 2), 9.28%.

Turning to “QVEQLELNAARDPN [14-mer hybrid insulin peptide spanning the fusion junction, TCR3 hit]”, the “%GFP+CD69+ cells” value is 2.09% in assay [2] (technical replicate 1); 2.09% in assay [2] (technical replicate 2); 2.19% in assay [3] (technical replicate 1); 2.2% in assay [3] (technical replicate 2); 66.4% in assay [4] (technical replicate 1); 66.1% in assay [4] (technical replicate 2).

As to VEDPQVEQLELGSGKEVKGEEKGE, in assay [1] (setting [5]), the “Enrichment score” value was 0.002292.

As for “VEQLELGAKQEEKE [14-mer hybrid insulin peptide spanning the fusion junction, TCR3 hit]”, the “%GFP+CD69+ cells” value in assay [2] (technical replicate 1) is recorded as 1.47%; in assay [2] (technical replicate 2) it was 1.36%; in assay [3] (technical replicate 1), 1.47%; in assay [3] (technical replicate 2) it was 1.55%; in assay [4] (technical replicate 1), 80.7%; in assay [4] (technical replicate 2), 80.6%.

In the case of “VEQLELGSGKEVKG [14-mer hybrid insulin peptide spanning the fusion junction, TCR3 hit]”, the “%GFP+CD69+ cells” value in assay [2] (technical replicate 1) stood at 4.13%; in assay [2] (technical replicate 2), 4.17%; in assay [3] (technical replicate 1), 3.79%; in assay [3] (technical replicate 2) it was 4%; in assay [4] (technical replicate 1) it was 78.8%; in assay [4] (technical replicate 2), 77.6%.
